Experiments:
[1] = system: pY36 of ERβ in MDA-MB-231 cells; assay: pY36 of endogenous ERβ in MDA-MB-231 cells treated with ERβ agonists; type: cell-based; conditions: agonists 10 nM, 2 hr (FIG. 19C)
[2] = system: p300 recruitment to ERβ target promoters MDA7 and MSMB; assay: p300 ChIP at ERβ target promoters in Hs578T cells; type: cell-based; conditions: WT-ERβ-expressing Hs578T cells; E2 10 nM
Description: For ChIP experiments in the ERβ-inducible Hs578T cells, 100 ng/ml doxcycline was added for 24 hr. […] Cells were cross-linked with 1% formaldehyde for 10 min, treated with glycine at a final concentration of 0.125 M for 5 min at room temperature, and lysed in lysis buffer (5 mM HEPES pH 9.0, 85 mM KCl, 0.5% Triton X-100) for 15 min on ice. Nuclei were resuspended in nuclei lysis buffer (50 mM Tris-HCl pH 8.0, 10 mM EDTA, 1% SDS), and the cross-linked DNA was sonicated for 10 min (with a 30 s on/off cycle) using a Bioruptor sonicator (Diagenode). The supernatant was used for ChIP as previously described (Ding et al., Mol Cell., 2008, (31)347-59).

[3] = two completed and published clinical trials; cited from earlier work
[4] = biological target: T1, p300 (UniProt Q09472 2-2414, limits assumed); assay: co-IP of Flag-ERβ with endogenous p300 in HEK293T cells
T1 construct: also called endogenous p300
T1 sequence (Q09472 2-2414 limits assumed): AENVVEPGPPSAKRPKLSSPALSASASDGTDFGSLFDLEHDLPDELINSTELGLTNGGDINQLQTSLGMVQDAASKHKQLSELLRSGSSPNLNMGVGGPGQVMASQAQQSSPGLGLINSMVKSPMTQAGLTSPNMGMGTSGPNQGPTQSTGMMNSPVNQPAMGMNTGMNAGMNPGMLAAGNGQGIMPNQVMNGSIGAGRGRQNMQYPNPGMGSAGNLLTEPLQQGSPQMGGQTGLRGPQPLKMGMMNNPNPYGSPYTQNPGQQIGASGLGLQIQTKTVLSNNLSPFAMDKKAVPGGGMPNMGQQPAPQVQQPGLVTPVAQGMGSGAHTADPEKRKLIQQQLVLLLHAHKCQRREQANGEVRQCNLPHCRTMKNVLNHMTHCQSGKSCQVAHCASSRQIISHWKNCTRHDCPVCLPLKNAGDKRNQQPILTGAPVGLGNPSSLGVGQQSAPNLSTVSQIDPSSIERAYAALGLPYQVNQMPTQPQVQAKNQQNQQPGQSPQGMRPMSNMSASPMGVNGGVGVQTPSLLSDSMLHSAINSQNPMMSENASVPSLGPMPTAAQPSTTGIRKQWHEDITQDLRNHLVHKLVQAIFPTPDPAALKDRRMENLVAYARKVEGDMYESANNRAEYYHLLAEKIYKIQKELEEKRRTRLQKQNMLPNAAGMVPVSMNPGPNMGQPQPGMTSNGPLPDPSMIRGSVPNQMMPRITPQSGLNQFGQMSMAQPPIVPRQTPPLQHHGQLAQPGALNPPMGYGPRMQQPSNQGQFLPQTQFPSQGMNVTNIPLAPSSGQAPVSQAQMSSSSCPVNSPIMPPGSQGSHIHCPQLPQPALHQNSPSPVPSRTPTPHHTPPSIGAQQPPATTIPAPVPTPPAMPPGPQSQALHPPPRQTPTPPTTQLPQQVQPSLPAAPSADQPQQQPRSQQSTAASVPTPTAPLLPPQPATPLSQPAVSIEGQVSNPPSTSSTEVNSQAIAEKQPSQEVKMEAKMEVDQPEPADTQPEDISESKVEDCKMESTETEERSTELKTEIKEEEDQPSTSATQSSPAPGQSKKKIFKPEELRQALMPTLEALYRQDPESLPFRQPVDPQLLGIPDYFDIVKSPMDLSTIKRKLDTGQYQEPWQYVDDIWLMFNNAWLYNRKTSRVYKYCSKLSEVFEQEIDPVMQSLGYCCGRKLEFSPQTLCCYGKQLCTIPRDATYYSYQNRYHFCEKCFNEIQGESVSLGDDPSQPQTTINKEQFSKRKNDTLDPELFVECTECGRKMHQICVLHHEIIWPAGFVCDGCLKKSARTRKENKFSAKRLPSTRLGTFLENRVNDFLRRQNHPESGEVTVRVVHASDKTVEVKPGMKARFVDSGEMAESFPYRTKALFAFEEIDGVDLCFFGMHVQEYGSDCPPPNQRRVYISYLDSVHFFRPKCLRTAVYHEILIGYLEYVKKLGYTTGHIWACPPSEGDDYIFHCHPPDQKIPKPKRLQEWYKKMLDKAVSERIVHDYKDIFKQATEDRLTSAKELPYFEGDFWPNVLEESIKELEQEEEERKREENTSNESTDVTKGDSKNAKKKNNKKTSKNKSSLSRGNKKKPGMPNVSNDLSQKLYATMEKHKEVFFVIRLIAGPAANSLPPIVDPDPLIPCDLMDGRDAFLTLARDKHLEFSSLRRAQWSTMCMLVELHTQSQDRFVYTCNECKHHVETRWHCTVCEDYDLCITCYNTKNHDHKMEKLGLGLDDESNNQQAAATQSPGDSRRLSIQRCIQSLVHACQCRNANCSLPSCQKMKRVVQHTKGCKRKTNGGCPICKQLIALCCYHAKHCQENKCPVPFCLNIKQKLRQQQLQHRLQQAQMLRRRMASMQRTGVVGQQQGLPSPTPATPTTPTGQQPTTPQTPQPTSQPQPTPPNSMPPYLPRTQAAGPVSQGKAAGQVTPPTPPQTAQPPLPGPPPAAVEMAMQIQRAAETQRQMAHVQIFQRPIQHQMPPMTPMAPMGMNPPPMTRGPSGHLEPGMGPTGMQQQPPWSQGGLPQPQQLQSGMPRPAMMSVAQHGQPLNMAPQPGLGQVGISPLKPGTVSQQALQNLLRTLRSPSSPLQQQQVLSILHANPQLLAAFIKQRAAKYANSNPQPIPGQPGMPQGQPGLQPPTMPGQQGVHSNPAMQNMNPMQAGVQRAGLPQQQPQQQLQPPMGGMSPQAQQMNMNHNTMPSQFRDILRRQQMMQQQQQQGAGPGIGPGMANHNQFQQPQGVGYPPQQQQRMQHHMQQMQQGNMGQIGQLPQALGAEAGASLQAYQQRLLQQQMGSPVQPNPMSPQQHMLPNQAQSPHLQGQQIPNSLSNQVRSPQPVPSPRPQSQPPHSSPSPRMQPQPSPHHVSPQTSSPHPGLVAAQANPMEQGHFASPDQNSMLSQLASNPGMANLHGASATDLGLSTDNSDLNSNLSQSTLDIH

[5] = biological target: T2, Flag-ERβ (WT)
T2 chain: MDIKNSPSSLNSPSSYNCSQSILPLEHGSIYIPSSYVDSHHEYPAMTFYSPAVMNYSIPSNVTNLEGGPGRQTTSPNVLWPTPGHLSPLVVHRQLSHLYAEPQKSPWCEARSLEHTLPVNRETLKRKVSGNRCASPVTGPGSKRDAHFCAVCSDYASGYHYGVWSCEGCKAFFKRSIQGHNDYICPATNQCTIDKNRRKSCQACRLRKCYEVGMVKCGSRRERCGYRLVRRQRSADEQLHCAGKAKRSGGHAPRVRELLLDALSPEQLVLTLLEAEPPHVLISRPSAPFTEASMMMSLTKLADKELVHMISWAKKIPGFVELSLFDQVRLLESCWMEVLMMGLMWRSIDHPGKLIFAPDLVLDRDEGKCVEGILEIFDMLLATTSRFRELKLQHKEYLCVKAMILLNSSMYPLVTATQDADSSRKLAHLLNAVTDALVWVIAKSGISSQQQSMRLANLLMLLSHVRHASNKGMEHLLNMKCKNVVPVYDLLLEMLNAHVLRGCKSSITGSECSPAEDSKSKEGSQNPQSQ

[6] = biological target: T3, ERβ pY36-containing peptide SIYIPSS(pY)VDSHHE
T3 chain: SIYIPSSYVDSHHE

Molecule	ERβ phosphorylation (pY36) [1]	binding result [4]	further results
N#CC(Cc1ccc(O)cc1)c1ccc(O)cc1 (stereo not drawn) [DPN, diarylpropionitrile]	enhanced		
C[C@]12CC[C@@H]3c4ccc(O)cc4CC[C@H]3[C@@H]1CC[C@@H]2O [E2, 17-β-estradiol]	enhanced		recruitment of p300 to the ERβ target promoters [2]: stimulated cyclic recruitment of p300
Oc1ccc([C@H]2COc3cc(O)ccc3C2)cc1 [S-equol]	enhanced		safety and drug tolerance [3]: has been demonstrated
Flag-ERβ (WT) (receptor, phosphotyrosine at 36 (pY36), as phosphorylated in HEK293T cells, Expressed in HEK293T cells and immunoprecipitated by the Flag tag; also called WT-ERβ; Flag-tagged WT ERβ; not shown: Flag tag) MDIKNSPSSLNSPSSYNCSQSILPLEHGSIYIPSSYVDSHHEYPAMTFYSPAVMNYSIPSNVTNLEGGPGRQTTSPNVLWPTPGHLSPLVVHRQLSHLYAEPQKSPWCEARSLEHTLPVNRETLKRKVSGNRCASPVTGPGSKRDAHFCAVCSDYASGYHYGVWSCEGCKAFFKRSIQGHNDYICPATNQCTIDKNRRKSCQACRLRKCYEVGMVKCGSRRERCGYRLVRRQRSADEQLHCAGKAKRSGGHAPRVRELLLDALSPEQLVLTLLEAEPPHVLISRPSAPFTEASMMMSLTKLADKELVHMISWAKKIPGFVELSLFDQVRLLESCWMEVLMMGLMWRSIDHPGKLIFAPDLVLDRDEGKCVEGILEIFDMLLATTSRFRELKLQHKEYLCVKAMILLNSSMYPLVTATQDADSSRKLAHLLNAVTDALVWVIAKSGISSQQQSMRLANLLMLLSHVRHASNKGMEHLLNMKCKNVVPVYDLLLEMLNAHVLRGCKSSITGSECSPAEDSKSKEGSQNPQSQ		binds	
Flag-ERβ Y36E (receptor, Expressed in HEK293T cells; also called Y36E-ERβ; Y36E mutant; not shown: Flag tag) MDIKNSPSSLNSPSSYNCSQSILPLEHGSIYIPSSEVDSHHEYPAMTFYSPAVMNYSIPSNVTNLEGGPGRQTTSPNVLWPTPGHLSPLVVHRQLSHLYAEPQKSPWCEARSLEHTLPVNRETLKRKVSGNRCASPVTGPGSKRDAHFCAVCSDYASGYHYGVWSCEGCKAFFKRSIQGHNDYICPATNQCTIDKNRRKSCQACRLRKCYEVGMVKCGSRRERCGYRLVRRQRSADEQLHCAGKAKRSGGHAPRVRELLLDALSPEQLVLTLLEAEPPHVLISRPSAPFTEASMMMSLTKLADKELVHMISWAKKIPGFVELSLFDQVRLLESCWMEVLMMGLMWRSIDHPGKLIFAPDLVLDRDEGKCVEGILEIFDMLLATTSRFRELKLQHKEYLCVKAMILLNSSMYPLVTATQDADSSRKLAHLLNAVTDALVWVIAKSGISSQQQSMRLANLLMLLSHVRHASNKGMEHLLNMKCKNVVPVYDLLLEMLNAHVLRGCKSSITGSECSPAEDSKSKEGSQNPQSQ		binds	
GST-EYA2 (protein) MVELVISPSLTVNSDCLDKLKFNRADAAVWTLSDRQGITKSAPLRVSQLFSRSCPRVLPRQPSTAMAAYGQTQYSAGIQQATPYTAYPPPAQAYGIPSYSIKTEDSLNHSPGQSGFLSYGSSFSTSPTGQSPYTYQMHGTTGFYQGGNGLGNAAGFGSVHQDYPSYPGFPQSQYPQYYGSSYNPPYVPASSICPSPLSTSTYVLQEASHNVPNQSSESLAGEYNTHNGPSTPAKEGDTDRPHRASDGKLRGRSKRSSDPSPAGDNEIERVFVWDLDETIIIFHSLLTGTFASRYGKDTTTSVRIGLMMEEMIFNLADTHLFFNDLEDCDQIHVDDVSSDDNGQDLSTYNFSADGFHSSAPGANLCLGSGVHGGVDWMRKLAFRYRRVKEMYNTYKNNVGGLIGTPKRETWLQLRAELEALTDLWLTHSLKALNLINSRPNCVNVLVTTTQLIPALAKVLLYGLGSVFPIENIYSATKTGKESCFERIMQRFGRKAVYVVIGDGVEEEQGAKKHNMPFWRISCHADLEALRHALELEYL			in vitro dephosphorylation of immunoprecipitated Flag-ERβ, pY36 immunoblot [5]: recombinant WT, but not mutant EYA2 completely eliminated the pY36 signal of ERβ in vitro; in vitro tyrosine phosphatase assay (release of free phosphate, Malachite Green) [6]: A pY36-containing ERβ peptide that can be dephosphorylated efficiently by recombinant WT-EYA2
